This note sets out measurements from patent US12419900B2, “Induction of synthetic lethality with epigenetic therapy” (The Johns Hopkins University, priority 2017, dated 2025).

Where two headings read alike, the source gives them in different places.

For assay [1], the system named is PC-3 cancer cells. The assay can be described thus: Chemical library screen (JHDL), second stage, dose response matrix with decitabine. Format: cell-based. From the text:
Cells were exposed to each dose of decitabine for four consecutive days prior to addition of each dose of the identified compounds for three consecutive days. […] FIG. 30 is a bar graph illustrating the Bliss Independence score values for the cells of the compounds identified.

The subject of assay [2] is PC-3 xenograft tumors. The assay can be described thus: PC-3 xenograft growth suppression. Format: in vivo, Male Fox1-nude mice. The following applies: KCC-08 i.p. 1 then 0.5 mg/kg, isotretinoin oral 30 mg/kg. Here is the method:
For cancer xenograft growth suppression, one million human PC-3 prostate cancer cells were suspended in Matrigel and inoculated into the flanks of Male Fox1-nude mice provided by Jackson Laboratory (Bar Harbor, ME). When the resultant xenograft tumors were measurable two weeks later, the tumor-bearing mice were treated with KCC-08, given by intraperitoneal infection in saline for 5 of 7 days at 1 mg/kg for week 1 and then 0.5 mg/kg for 5 of 7 days for week 2. Isotretinoin was given by oral gavage in peanut oil at 30 mg/kg for the same 5 of 7 days as the KCC-08 for weeks 1 and 2. For week 3, isotretinoin was given by oral gavage in peanut oil at 30 mg/kg for 5 of 7 days, and KCC-08 was not administered. Tumors were measured 3 times a week for 3 weeks, and the volume was estimated by using the formula 4/3*Π*width*length*depth.

In assay [3] the test system is retinoic acid signaling pathway. The assay can be described thus: pRARE-luciferase reporter of retinoic acid signaling in PC-3 cells. In kind it is cell-based, human. The following applies: KCC-08 10 μM, isotretinoin 5 μM, 72 hours, vehicle average 1.00. Here is the method: To determine whether MBD2 protein inhibitors triggered retinoic acid signaling pathway activation, KCC-08 was administered to PC-3 human prostate cancer cells transfected with a heterologous reporter plasmid responsive to the presence of retinoic acid signaling (pRARE-luciferase), and the cells were used to assess reactivation of the retinoic acid response signaling pathway. The cancer cells were treated with a vehicle control or KCC-08 (10 μM) both with and without isotretinoin (5 μM) for 72 hours, and then assayed for luciferase reporter production.
On the technique in general: In a reporter assay the amount or activity of a reporter protein is the signal.

In assay [4] the test system is PC-3 cancer cells. Kind of assay: Clonogenic survival. Format: cell-based, human. The following applies: 72 hours treatment, colonies ten days later, vehicle control 100.00, 12-27 replicates. Here is the method:
To assay for cancer clonogenic survival, PC-3 cancer cells were seeded into 6-well plates at 5,000 cells/well and allowed to attach overnight. Next, the cells were treated for 72 hours with vehicle control or KCC-08, both with and without isotretinoin, washed three times with phosphate-buffered saline, and then placed back into complete growth medium. Ten days later, colonies founded by surviving cells were detected using crystal violet staining.

Assay [5] deals with DU145 prostate cancer cells. The assay can be described thus: Alamar blue cell viability and growth, alisertib x decitabine dose matrix. In kind it is cell-based. The following applies: Aurora kinase inhibitor + decitabine. Here is the method:
DU145 prostate cancer cells and A549 lung cancer cells were treated with varying concentrations (0 nM, 10 nM, 50 nM, and 100 nM) of alisertib in addition to varying concentrations of decitabine (0 nM, 50 nM, 100 nM, and 250 nM). Representative data are shown in FIGS. 2A and 2B, as well as the Tables below. […] In each panel, a dose response of each drug alone and in combination was used in Alamar blue cell viability assays. […] Formal synergy analyses were performed using the Bliss independence score (where values greater than zero indicate greater than additive effect). […] The graph of FIG. 2A is a growth curve of the DU145 prostate cancer cells for the agents alone (decitabine and alisertib separately), a vehicle control, and the agents in combination (decitabine and alisertib together). […] Likewise, the graph of FIG. 2B is a growth curve of the A549 lung cancer cells for the agents alone (decitabine and alisertib separately), a vehicle control, and the agents in combination (decitabine and alisertib together). […] The synergy analysis of the combination of decitabine and alisertib was evaluated in a series of 18 cancer cell lines (9 prostate, 1 ovarian, 1 lung, 2 colon, 2 central nervous system, and 3 breast cancer cell lines) and 2 non-cancer cell models.

Setting [6] is: PC-3, decitabine 0-10 μM four days, then compound 0-10 μM three days.

For the molecule `Cn1cc(C2=C(c3cn(CCCSC(=N)N)c4ccccc34)C(=O)NC2=O)c2ccccc21` [RO31-8220], the “growth inhibition when combined with decitabine (Bliss independence score sum across all dose combinations greater than zero)” value (“growth inhibition when combined” below) in assay [1] was “synergistic growth inhibition”.

Consider `CCCCCCCCCCCCCCCCn1cc[n+](Cc2ccccc2)c1C.[I-]` [NH125], for which, in assay [1], the “growth inhibition when combined” value is recorded as “synergistic growth inhibition”.

As for `CC1=C(/C=C/C(C)=C/C=C/C(C)=C\C(=O)O)C(C)(C)CCC1` [Isotretinoin, isotretinoin], the “Percent average xenograft tumor volume relative to baseline, Average” value in assay [2] (Day 1) is 100%. Besides, the “Percent average xenograft tumor volume relative to baseline, Average” value in assay [2] (Day 4) worked out at 161.09%. Moreover, the “Percent average xenograft tumor volume relative to baseline, Average” value in assay [2] (Day 8) was 238.81%. The “Percent average xenograft tumor volume relative to baseline, Average” value in assay [2] (Day 11) is recorded as 315.81%. The “Percent average xenograft tumor volume relative to baseline, Average” value in assay [2] (Day 15) is 394.27%. For the same molecule, the “Percent average xenograft tumor volume relative to baseline, Average” value in assay [2] (Day 18) is recorded as 488.75%. Besides, the “Percent average xenograft tumor volume relative to baseline, Average” value in assay [2] (Day 22) turned out to be 522.19%. In assay [3], the “RAR Reporter Activity, Average” value amounted to 1.57; the “RAR Reporter Activity, Trial 1” value amounted to 1.66; the “RAR Reporter Activity, Trial 2” value was 1.77; the “RAR Reporter Activity, Trial 3” value was 1.62. For the same molecule, in assay [3], the “RAR Reporter Activity, Trial 4” value was 1.42; the “RAR Reporter Activity, Trial 5” value stood at 1.47; the “RAR Reporter Activity, Trial 6” value amounted to 1.46. The “Clonogenic Survival Relative to Control, Average” value in assay [4] stood at 96.62. As for `CC(=O)O[C@@]12CO[C@@H]1C[C@H](O)[C@@]1(C)C(=O)[C@H](O)C3=C(C)[C@@H](OC(=O)[C@H](O)[C@@H](NC(=O)OC(C)(C)C)c4ccccc4)C[C@@](O)([C@@H](OC(=O)c4ccccc4)[C@H]21)C3(C)C` [docetaxel], in assay [1] (setting [6]), the “growth inhibition when combined” value is listed as “synergistic growth inhibition”. Consider `Cc1ccc2c(=O)c3ccccc3n(CCCN)c2c1C.O=C(O)C(=O)O` [ER27319], for which the “growth inhibition when combined” value in assay [1] (setting [6]) is listed as “synergistic growth inhibition”. On to `O=C1NC(=O)c2c1c1c3ccccc3n3c1c1c2c2ccccc2n1C1CCC3O1` [SB218078], for which the “growth inhibition when combined” value in assay [1] (setting [6]) was “synergistic growth inhibition”.

Take `COc1c(C)c2c(c(O)c1C/C=C(\C)CCC(=O)O)C(=O)OC2` [mycophenolic acid]: the “growth inhibition when combined” value in assay [1] (setting [6]) was “synergistic growth inhibition”. On the same count and under the same terms, the entry for `CC[C@@]1(O)C(=O)OCc2c1cc1n(c2=O)Cc2cc3c(CN(C)C)c(O)ccc3nc2-1` [topotecan] is “synergistic growth inhibition”. On to `COc1cc2c(c(OC)c1OC)-c1ccc(OC)c(=O)cc1[C@@H](NC(C)=O)CC2` [colchicine], for which the “growth inhibition when combined” value in assay [1] is “synergistic growth inhibition”. Regarding `COc1cc2ncn(-c3cc(OCc4ccccc4C(F)(F)F)c(C(N)=O)s3)c2cc1OC` [GW843682], the “growth inhibition when combined” value in assay [1] (setting [6]) is “synergistic growth inhibition”. Same read-out and setting: the entry for `C[C@@H]1O[C@@H](O[C@H]2C[C@@H](O)[C@]3(CO)[C@H]4[C@H](O)C[C@]5(C)[C@@H](C6=CC(=O)OC6)CC[C@]5(O)[C@@H]4CC[C@]3(O)C2)[C@H](O)[C@H](O)[C@H]1O` [ouabain] is “synergistic growth inhibition”. Take `CC[C@@]1(O)C[C@H](O[C@H]2C[C@H](N(C)C)[C@H](O[C@H]3C[C@H](O)[C@H](O[C@H]4CCC(=O)[C@H](C)O4)[C@H](C)O3)[C@H](C)O2)c2c(cc3c(c2O)C(=O)c2c(O)cccc2C3=O)[C@H]1C(=O)OC` [aclarubicin]: the “growth inhibition when combined” value in assay [1] is “synergistic growth inhibition”. Consider `COc1ccc(C[C@H]2NC[C@H](O)[C@H]2OC(C)=O)cc1` [anisomycin], for which the “growth inhibition when combined” value in assay [1] (setting [6]) is listed as “synergistic growth inhibition”.

For the molecule `C[C@]12CC[C@H]3[C@@H](CC[C@]4(O)C[C@@H](O)CC[C@]34C=O)[C@@]1(O)CC[C@@H]2C1=CC(=O)OC1` [strophanthidin], the “growth inhibition when combined” value in assay [1] was “synergistic growth inhibition”. Consider `Nc1ccn([C@@H]2O[C@H](CO)[C@@H](O)[C@@H]2O)c(=O)n1` [cytarabine], for which, in assay [1] (setting [6]), the “growth inhibition when combined” value is listed as “synergistic growth inhibition”. On the same count and under the same terms, the entry for `Nc1ccn([C@@H]2O[C@H](CO)[C@@H](O)C2(F)F)c(=O)n1` [gemcitabine] is “synergistic growth inhibition”; for `CC(C)[C@@H]1NC(=O)[C@H](C)OC(=O)[C@@H](C(C)C)NC(=O)[C@@H](C(C)C)OC(=O)[C@H](C(C)C)NC(=O)[C@H](C)OC(=O)[C@@H](C(C)C)NC(=O)[C@@H](C(C)C)OC(=O)[C@H](C(C)C)NC(=O)[C@H](C)OC(=O)[C@@H](C(C)C)NC(=O)[C@@H](C(C)C)OC1=O` [valinomycin] it is “synergistic growth inhibition”. `Cc1csc(-c2nnc(Nc3ccc(Oc4ncccc4-c4ccnc(N)n4)cc3)c3ccccc23)c1` [AMG-900]: the “growth inhibition of DU-145 cells in combination with decitabine” value in assay [5] is given as “synergistic growth inhibition”.

With `Nc1ccc(-c2cccc3c(=O)cc(N4CCOCC4)oc23)cc1` [PI828], the “growth inhibition when combined” value in assay [1] (setting [6]) was “synergistic growth inhibition”.

As for `N.N.O=C([O-])C1(C(=O)[O-])CCC1.[Pt+2]` [carboplatin], the “growth inhibition when combined” value in assay [1] (setting [6]) is “synergistic growth inhibition”. As for `O=C(O)c1ccc(Nc2ncc3c(n2)-c2ccc(Cl)cc2C(c2c(F)cccc2F)=NC3)cc1` [MLN8054], the “growth inhibition of DU-145 cells in combination with decitabine” value in assay [5] is “synergistic growth inhibition”. Take `CCC1=C[C@@H]2CN(C1)Cc1c([nH]c3ccccc13)[C@@](C(=O)OC)(c1cc3c(cc1OC)N(C)[C@H]1[C@@](O)(C(=O)OC)[C@H](OC(C)=O)[C@]4(CC)C=CCN5CC[C@]31[C@@H]54)C2` [vinorelbine]: in assay [1] (setting [6]), the “growth inhibition when combined” value was “synergistic growth inhibition”.

Turning to `CO[C@H]1C[C@H](O[C@H]2CC[C@]3(C)[C@H]4CC[C@]5(C)[C@@H](C6=CC(=O)OC6)CC[C@]5(O)[C@@H]4CC[C@]3(O)C2)O[C@H](C)[C@H]1O` [periplocymarin], the “growth inhibition when combined” value in assay [1] is listed as “synergistic growth inhibition”.
